These results are taken from article PMC8637149 (Heliyon, 2021).

Assay [1] concerns the target T1, ZmPEPC-C4 (Zea mays, UniProt Q84KR7).
T1 sequence (Q84KR7 1-970): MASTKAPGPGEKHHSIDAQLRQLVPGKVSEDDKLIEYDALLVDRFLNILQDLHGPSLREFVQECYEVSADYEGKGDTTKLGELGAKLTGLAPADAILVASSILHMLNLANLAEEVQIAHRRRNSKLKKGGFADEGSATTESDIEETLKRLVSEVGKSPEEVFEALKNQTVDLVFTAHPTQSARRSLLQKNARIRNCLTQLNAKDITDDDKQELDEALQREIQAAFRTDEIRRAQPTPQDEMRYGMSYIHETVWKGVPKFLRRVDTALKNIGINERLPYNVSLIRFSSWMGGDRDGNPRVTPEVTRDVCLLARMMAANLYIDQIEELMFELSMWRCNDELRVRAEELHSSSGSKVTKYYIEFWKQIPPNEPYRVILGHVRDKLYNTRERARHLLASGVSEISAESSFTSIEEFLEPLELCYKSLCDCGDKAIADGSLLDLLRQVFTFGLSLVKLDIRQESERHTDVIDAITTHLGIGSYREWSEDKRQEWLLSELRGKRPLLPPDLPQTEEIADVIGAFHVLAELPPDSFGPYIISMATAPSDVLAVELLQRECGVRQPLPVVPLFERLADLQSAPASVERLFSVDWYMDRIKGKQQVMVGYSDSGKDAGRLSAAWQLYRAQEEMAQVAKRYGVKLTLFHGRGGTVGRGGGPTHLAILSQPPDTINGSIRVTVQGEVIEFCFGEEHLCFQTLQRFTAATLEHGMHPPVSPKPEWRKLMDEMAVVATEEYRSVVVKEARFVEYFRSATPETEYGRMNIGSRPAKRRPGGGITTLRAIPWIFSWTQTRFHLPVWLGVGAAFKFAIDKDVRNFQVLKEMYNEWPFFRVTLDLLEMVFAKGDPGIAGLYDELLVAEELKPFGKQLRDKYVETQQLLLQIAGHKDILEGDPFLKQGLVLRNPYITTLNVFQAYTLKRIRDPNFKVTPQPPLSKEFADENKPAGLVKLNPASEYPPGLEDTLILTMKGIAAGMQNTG
In words: ANS fluorescence titration, emission […] nm. In kind it is binding.

Assay [2] concerns the target T1, ZmPEPC-C4. In words: near-UV CD and limited trypsin proteolysis. In kind it is binding. Conditions: 15 mM G6P, pH 7.3; allosteric activator; no effect on ANS fluorescence.
Assay [3] deals with T1, ZmPEPC-C4. Put plainly: quenching of ANS-enzyme fluorescence at […] nm, Hill-type fit. In kind it is binding.
The target of assay [4] is T1, ZmPEPC-C4. In words: coupled malic dehydrogenase assay, NADH oxidation at […] nm. In kind it is biochemical. As to conditions: read-out: % inhibition at 10 mM.

`O=S(=O)(O)c1cccc2cccc(Nc3ccccc3)c12` [ANS] showed a Kd on ZmPEPC-C4 [1] of 14.5 ± 1.5 µM.

For `O=P(O)(O)OC[C@H]1OC(O)[C@H](O)[C@@H](O)[C@@H]1O` (stereo partly shown) [G6P], on ZmPEPC-C4 [2], the “near-UV CD and limited trypsin proteolysis” value was “differences were also observed in the CD spectra of the E-PEP, E-G6P, and E-Gly complexes”.

`O=C(O)C[C@H](O)C(=O)O` [malate]: the Kd on ZmPEPC-C4 [3] worked out at 360 ± 70 µM. The inhibition at 10000 µM at ZmPEPC-C4 [4] came to 84.5 ± 0.2%.
